Measurements reported in paper PMC2810227, “3-O-Methylfunicone, a Selective Inhibitor of Mammalian Y-Family DNA Polymerases from an Australian Sea Salt Fungal Strain” (Marine Drugs, 2009).
Where two headings read alike, the source gives them in different places.

Biological target: T1, human pol κ (Homo sapiens, UniProt Q9UBT6)
T1 construct: A truncated form of pol κ (residues 1–560) with 6 x His-tags attached at the C-terminus; 6xHis (C); made in house; host or cells: E. coli
T1 sequence (Q9UBT6 1-560): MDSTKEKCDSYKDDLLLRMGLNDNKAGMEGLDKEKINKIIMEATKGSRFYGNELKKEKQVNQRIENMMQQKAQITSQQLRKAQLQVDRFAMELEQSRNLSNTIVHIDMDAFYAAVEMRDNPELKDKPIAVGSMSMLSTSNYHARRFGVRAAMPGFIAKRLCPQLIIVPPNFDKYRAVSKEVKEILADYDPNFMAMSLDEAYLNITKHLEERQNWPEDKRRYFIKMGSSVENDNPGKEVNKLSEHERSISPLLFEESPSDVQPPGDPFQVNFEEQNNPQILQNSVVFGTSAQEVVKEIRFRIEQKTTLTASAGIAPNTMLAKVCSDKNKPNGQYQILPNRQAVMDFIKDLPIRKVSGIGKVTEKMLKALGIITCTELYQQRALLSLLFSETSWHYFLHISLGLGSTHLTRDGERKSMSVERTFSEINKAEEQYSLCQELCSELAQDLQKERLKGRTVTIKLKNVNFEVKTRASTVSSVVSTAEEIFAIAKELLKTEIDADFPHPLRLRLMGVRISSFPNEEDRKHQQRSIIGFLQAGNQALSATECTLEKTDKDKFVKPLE
Assay: Kinetic analysis of the inhibition of human pol κ
Assay type: biochemical
Details: for Ki: Dixon plot
Description: Next, to elucidate the mechanism of inhibition, the extent of inhibition as a function of DNA template-primer or dNTP substrate concentrations was studied (Figure 4). In kinetic analysis, poly(dA)/oligo(dT)18 and dTTP were used as the DNA template-primer and dNTP substrate, respectively. […] When activated DNA and four dNTP substrates were used as the DNA template-primer and dNTP substrate, respectively, the inhibition of human pol κ by compound 1 was competitive with the DNA template-primer and non-competitive with the dNTP substrate (data not shown).
Figure 4. Kinetic analysis of the inhibition of human pol κ by compound 1. (A) Human pol κ activity was measured in the absence (closed square) or presence of 4 μM (closed circle), 8 μM (closed triangle) or 12 μM (closed diamond) compound 1 using the indicated concentrations of the DNA template-primer. (B) Human pol κ activity was assayed with the indicated concentrations of the substrate dTTP in the presence of 4 μM (open circle), 8 μM (open triangle) or 12 μM (open diamond) or in the absence (open square) of compound 1. […] Amount of human pol κ in the assay mixture was 0.05 units.
The reaction mixtures for pol α, pol β, plant pols and prokaryotic pols were described previously; those for pol γ, and pols δ and ɛ were as described by Umeda et al. and Ogawa et al., respectively. The reaction mixtures for pols η, ι and κ were the same as for pol α, and the reaction mixture for pol λ was the same as for pol β. For pols, poly(dA)/oligo(dT)18 (A/T = 2/1) and dTTP were used as the DNA template-primer and nucleotide (i.e., dNTP) substrate, respectively. For HIV-1 reverse transcriptase, poly(rA)/oligo(dT)18 (A/T = 2/1) and dTTP were used as the DNA template-primer and nucleotide substrate, respectively. For TdT, oligo(dT)18 (3′-OH) and dTTP were used as the DNA primer and nucleotide substrate, respectively.
The compounds were dissolved in distilled dimethyl sulfoxide (DMSO) at various concentrations and sonicated for 30 sec. Aliquots of 4 μl sonicated samples were mixed with 16 μl of each enzyme (final amount 0.05 units) in 50 mM Tris-HCl (pH7.5) containing 1 mM dithiothreitol, 50% glycerol and 0.1 mM EDTA, and kept at 0 °C for 10 min. These inhibitor-enzyme mixtures (8 μl) were added to 16 μl of each of the enzyme standard reaction mixtures (final concentration of 50 mM Tris-HCl [pH 7.5], 1 mM dithiothreitol, 1 mM MgCl2, 15% glycerol, 10 μM poly(dA)/oligo(dT)18 and 10 μM [^3H]-dTTP), and incubation was carried out at 37 °C for 60 min, except for Taq pol, which was incubated at 74 °C for 60 min. Activity without the inhibitor was considered 100%, and the remaining activity at each concentration of the inhibitor was determined relative to this value. One unit of pol activity was defined as the amount of enzyme that catalyzed the incorporation of 1 nmol dNTP (i.e., dTTP) into synthetic DNA template-primers in 60 min at 37 °C under the normal reaction conditions for each enzyme.

## C/C=C/c1occ(C(=O)c2c(OC)cc(OC)cc2C(=O)OC)c(=O)c1OC [compound 1, 3-O-methylfunicone]
4 μM compound
  increase in Michaelis constant (Km), DNA template-primer: 295%
8 μM compound
  increase in Michaelis constant (Km), DNA template-primer: 467%
12 μM compound
  increase in Michaelis constant (Km), DNA template-primer: 812%
12 μM compound, decreased from 41.7 without compound
  Vmax for the dNTP substrate: 11.1 pmol/h
read-out: inhibition constant (Ki) for the DNA template-primer
  Ki: 1300 nM
read-out: inhibition constant (Ki) for the dTTP substrate
  Ki: 4400 nM
Activated DNA as template-primer, data not shown
  mode of inhibition with the DNA template-primer: competitive
dTTP, double reciprocal plots
  mode of inhibition with the dNTP substrate: non-competitive
Four dNTP substrates, data not shown
  mode of inhibition with the dNTP substrate: non-competitive
poly(dA)/oligo(dT)18, double reciprocal plots
  mode of inhibition with the DNA template-primer: competitive
Unchanged in the presence of 4, 8 and 12 μM compound
  apparent maximum velocity (Vmax), DNA template-primer: 52.6 pmol/h
